Experimental data taken from patent publication US6919424B2, “Binding peptides for carcinoembryonic antigen (CEA)” (Dyax Corp., priority 2000, dated 2005).
Bridge positions count the residues as written; N and C are the ends. Ends that are not written are not given here. Peptide text beside a SMILES is read from it. * marks the point of attachment. 5FAM = O=C1OC2(c3ccc(O)cc3Oc3cc(O)ccc32)c2ccc(C(=O)*)cc21

Legend:
CEA = target: T1, CEA (Homo sapiens, UniProt P06731); test: Fluorescence anisotropy direct binding to CEA; conditions: for binding to CEA (in words): compared with binding to NA3
T1 construct: purchased
T1 sequence (P06731 35-676): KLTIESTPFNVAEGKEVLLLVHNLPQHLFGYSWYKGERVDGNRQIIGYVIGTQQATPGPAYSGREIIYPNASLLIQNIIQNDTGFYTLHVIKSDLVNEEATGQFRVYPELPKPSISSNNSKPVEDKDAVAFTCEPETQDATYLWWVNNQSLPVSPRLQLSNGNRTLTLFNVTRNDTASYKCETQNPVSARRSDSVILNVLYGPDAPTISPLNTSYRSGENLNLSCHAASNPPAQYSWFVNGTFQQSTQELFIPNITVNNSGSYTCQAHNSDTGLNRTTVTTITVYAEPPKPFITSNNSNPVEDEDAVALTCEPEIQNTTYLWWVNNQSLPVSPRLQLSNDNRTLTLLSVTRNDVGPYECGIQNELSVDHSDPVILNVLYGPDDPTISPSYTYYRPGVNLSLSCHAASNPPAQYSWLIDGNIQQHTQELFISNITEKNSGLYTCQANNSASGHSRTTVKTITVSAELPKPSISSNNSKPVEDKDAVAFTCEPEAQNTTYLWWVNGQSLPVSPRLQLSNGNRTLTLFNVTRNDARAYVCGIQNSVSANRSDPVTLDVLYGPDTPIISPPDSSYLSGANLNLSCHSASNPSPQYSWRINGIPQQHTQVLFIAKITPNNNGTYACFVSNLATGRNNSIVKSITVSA
Method: Dissociation constants were determined using fluorescence anisotropy, through direct binding measurements to either NA-3 or CEA in PBS with 0.01% TWEEN 20. In direct binding assays, the concentration of the fluorescein-labeled peptide is held constant and the concentration of NA3 is varied. In the competition experiment, the concentration of the fluorescein-labeled peptide and the NA3 target are held constant and the concentration of competitor peptide (from Isolate 12-H12) is varied. The change in anisotropy is fit to the appropriate equation via nonlinear regression to obtain the apparent Kd. Isolate 304A-12-H12, previously isolated from Lib2 and assayed for binding, was analyzed in parallel as a control. Replicate analyses were run for certain binders and are reported to confirm accuracy and precision of measurements. KD standard error values are calculated from the nonlinear regression (SIGMAPLOT, SPSS Science, Chicago, Ill.).

NA3 = target: T2, NA3 (Homo sapiens, UniProt P06731); test: Phage ELISA with varying amounts of NA3 per well (FIGS. 2, 4, 5); type: binding; conditions: FIG. 2; 100, 50, 10, 5, 1, 0 ng per well
T2 construct: H6NA3, consisting of a hexahistidine leader and the N and A3 domains of CEA, was used
T2 sequence (P06731 35-144 limits assumed): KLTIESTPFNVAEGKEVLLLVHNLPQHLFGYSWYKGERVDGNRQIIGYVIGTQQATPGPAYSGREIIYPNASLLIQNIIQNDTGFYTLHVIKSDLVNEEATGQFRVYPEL
T2 sequence (P06731 501-588 limits assumed): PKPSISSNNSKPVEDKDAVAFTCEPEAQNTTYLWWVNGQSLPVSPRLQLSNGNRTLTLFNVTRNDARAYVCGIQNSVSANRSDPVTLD
Method: The first bar for each sample represents wells each having 100 ng CEA. Successive bars represent 50 ng, 10 ng, 5 ng, 1 ng, and 0 ng CEA per well.
The first bar for each sample represents wells each having 30 ng NA3. Successive bars represent 10 ng, 3 ng, and 0 ng NA3 per well.
Several Isolates gave especially strong ELISA signals and these were tested further.
Several Isolates gave especially strong ELISA signals and these were tested further. […] Isolate 304A-12-H12 (designated DX306) was assayed in parallel as a basis for comparison.

H6NA3 = target: T3, H6NA3 (Homo sapiens, UniProt P06731); test: Fluorescence anisotropy direct binding to H6NA3 / NA3
T3 construct: H6NA3, consisting of a hexahistidine leader and the N and A3 domains of CEA, was used
T3 sequence (P06731 35-144 limits assumed): T2 sequence (P06731 35-144 limits assumed)
T3 sequence (P06731 501-588 limits assumed): T2 sequence (P06731 501-588 limits assumed)
Method: (§1) Each peptide was also provided with a C-terminal amide-functional linker useful for immobilizing peptides to various chromatographic substrates: -Ala18-Pro19-Gly20-Gly-Glu-Gly-Gly-Gly-Ser-Lys-CONH2 (SEQ ID NO:28). […] Aliquots of each peptide were fluorescently labeled using NHS-fluorescein reacted with the ε-amino side group of the C-terminal lysine.
Dissociation constants were determined using fluorescence anisotropy, through direct binding measurements and competition experiments. In direct binding assays, the concentration of the fluorescein-labeled peptide is held constant and the concentration of H6NA3 is varied. In the competition experiment, the concentration of the fluorescein-labeled peptide and the H6NA3 target are held constant and the concentration of a competitor (cT84.66, unlabeled) is varied. The change in anisotropy is fit to the appropriate equation via nonlinear regression to obtain the apparent Kd.
Aliquots of each peptide were fluorescently labeled using NHS-fluorescein reacted with the ε-amino side group of the C-terminal lysine.
Dissociation constants were determined using fluorescence anisotropy, through direct binding measurements (see Example 6).
as §1, with “Peptides including the binding domain of the CEA binder Isolates were synthesized by solid-phase synthesis. Each” for “Each”
Dissociation constants were determined using fluorescence anisotropy, through direct binding measurements to either NA-3 or CEA in PBS with 0.01% TWEEN 20. […] Isolate 304A-12-H12, previously isolated from Lib2 and assayed for binding, was analyzed in parallel as a control. […] KD standard error values are calculated from the nonlinear regression (SIGMAPLOT, SPSS Science, Chicago, Ill.).

phage ELISA binding profile to varying amounts of NA3 (NA3)	Compound	binding to CEA (in words) (CEA)	further results
	CC[C@H](C)[C@H](NC(=O)[C@H](CC(N)=O)NC(=O)[C@@H]1CSSC[C@H](NC(=O)[C@@H](NC(=O)[C@H](Cc2c[nH]c3ccccc23)NC(=O)[C@H](CC(=O)O)NC(=O)[C@@H](N)CO)C(C)C)C(=O)N[C@@H](CCC(=O)O)C(=O)N[C@@H](Cc2ccccc2)C(=O)N[C@@H](Cc2ccccc2)C(=O)N[C@@H](CCCCN)C(=O)N[C@@H](CC(=O)O)C(=O)N[C@@H](CCC(N)=O)C(=O)N[C@@H](Cc2c[nH]c3ccccc23)C(=O)N[C@@H](Cc2ccccc2)C(=O)N1)C(=O)N[C@@H](CC(C)C)C(=O)N[C@@H](C)C(=O)N1CCC[C@H]1C(=O)NCC(=O)NCC(=O)N[C@@H](CCC(=O)O)C(=O)NCC(=O)NCC(=O)NCC(=O)N[C@@H](CO)C(=O)N[C@@H](CCCCNC(=O)c1ccc2c(c1)C(=O)OC21c2ccc(O)cc2Oc2cc(O)ccc21)C(N)=O [Isolate 315A-18-E02] (H-SDWVCEFFKDQWFCNILAPGGEGGGSK(5FAM)-NH2; disulfide 5-14; N-terminus assumed)	effectively bound CEA, but not as strongly as they bound NA3	
at least as good as G08 and A07	DWVCNLFKNQWFCDVP (CEA binding polypeptide) [Isolate 304A-14-B02]		
	CC(C)C[C@H](NC(=O)[C@H](CO)NC(=O)[C@H](CC(N)=O)NC(=O)[C@@H]1CSSC[C@H](NC(=O)[C@@H](NC(=O)[C@H](Cc2c[nH]c3ccccc23)NC(=O)[C@H](CC(=O)O)NC(=O)[C@@H](N)CO)C(C)C)C(=O)N[C@@H](CCC(=O)O)C(=O)N[C@@H](Cc2c[nH]c3ccccc23)C(=O)N[C@@H](CC(C)C)C(=O)N[C@@H](CCCCN)C(=O)N2CCC[C@H]2C(=O)N[C@@H](CCC(N)=O)C(=O)N[C@@H](Cc2c[nH]c3ccccc23)C(=O)N[C@@H](Cc2ccc(O)cc2)C(=O)N1)C(=O)N[C@@H](C)C(=O)N1CCC[C@H]1C(=O)NCC(=O)NCC(=O)N[C@@H](CCC(=O)O)C(=O)NCC(=O)NCC(=O)NCC(=O)N[C@@H](CO)C(=O)N[C@@H](CCCCNC(=O)c1ccc2c(c1)C(=O)OC21c2ccc(O)cc2Oc2cc(O)ccc21)C(N)=O [Isolate 315A-17-B12] (H-SDWVCEWLKPQWYCNSLAPGGEGGGSK(5FAM)-NH2; disulfide 5-14; N-terminus assumed)	did not appear to bind CEA	CEA KD (μM) direct binding (CEA; Table 10, commercial CEA, PBS with 0.01% TWEEN 20): (no binding)
	CC[C@H](C)[C@@H]1NC(=O)[C@H](Cc2ccccc2)NC(=O)[C@H](CCC(=O)O)NC(=O)[C@@H](NC(=O)[C@@H](NC(=O)[C@H](Cc2c[nH]c3ccccc23)NC(=O)[C@H](CC(=O)O)NC(=O)[C@@H](N)CO)C(C)C)CSSC[C@@H](C(=O)N[C@@H](CC(N)=O)C(=O)N[C@H](C(=O)N[C@@H](CC(C)C)C(=O)N[C@@H](C)C(=O)N2CCC[C@H]2C(=O)NCC(=O)NCC(=O)N[C@@H](CCC(=O)O)C(=O)NCC(=O)NCC(=O)NCC(=O)N[C@@H](CO)C(=O)N[C@@H](CCCCNC(=O)c2ccc3c(c2)C(=O)OC32c3ccc(O)cc3Oc3cc(O)ccc32)C(N)=O)C(C)C)NC(=O)[C@H](Cc2ccccc2)NC(=O)[C@H](Cc2c[nH]c3ccccc23)NC(=O)[C@H](CCC(N)=O)NC(=O)[C@H](CO)NC(=O)[C@H](CCCCN)NC1=O [Isolate 315A-17-G08] (H-SDWVCEFIKSQWFCNVLAPGGEGGGSK(5FAM)-NH2; disulfide 5-14; N-terminus assumed)	effectively bound CEA, but not as strongly as they bound NA3	
	CC(C)C[C@H](NC(=O)[C@@H](NC(=O)[C@H](CC(=O)O)NC(=O)[C@@H]1CSSC[C@H](NC(=O)[C@@H](NC(=O)[C@H](Cc2c[nH]c3ccccc23)NC(=O)[C@H](CC(=O)O)NC(=O)[C@@H](N)CO)C(C)C)C(=O)N[C@@H](CCC(=O)O)C(=O)N[C@@H](Cc2ccc(O)cc2)C(=O)N[C@@H](Cc2ccccc2)C(=O)N[C@@H](CCCCN)C(=O)N[C@@H](CC(N)=O)C(=O)N[C@@H](CCC(N)=O)C(=O)N[C@@H](Cc2c[nH]c3ccccc23)C(=O)N[C@@H](Cc2ccccc2)C(=O)N1)[C@@H](C)O)C(=O)N[C@@H](C)C(=O)N1CCC[C@H]1C(=O)NCC(=O)NCC(=O)N[C@@H](CCC(=O)O)C(=O)NCC(=O)NCC(=O)NCC(=O)N[C@@H](CO)C(=O)N[C@@H](CCCCNC(=O)c1ccc2c(c1)C(=O)OC21c2ccc(O)cc2Oc2cc(O)ccc21)C(N)=O [Hybrid H12/A12, DWVCEYFKNQWFCDTL]		CEA binding characteristics compared with other isolates (H6NA3; direct binding KD, Table 7): comparable to the Isolates obtained from the initial library screen
do not drop off so quickly	CC(C)C[C@@H]1NC(=O)[C@H](CC(N)=O)NC(=O)[C@@H](NC(=O)[C@@H](NC(=O)[C@H](Cc2c[nH]c3ccccc23)NC(=O)[C@H](CC(=O)O)NC(=O)[C@@H](N)CO)C(C)C)CSSC[C@@H](C(=O)N[C@@H](CC(=O)O)C(=O)N[C@H](C(=O)N[C@@H](CC(C)C)C(=O)N[C@@H](C)C(=O)N2CCC[C@H]2C(=O)NCC(=O)NCC(=O)N[C@@H](CCC(=O)O)C(=O)NCC(=O)NCC(=O)NCC(=O)N[C@@H](CO)C(=O)N[C@@H](CCCCNC(=O)c2ccc3c(c2)C(=O)OC32c3ccc(O)cc3Oc3cc(O)ccc32)C(N)=O)[C@@H](C)O)NC(=O)[C@H](Cc2ccccc2)NC(=O)[C@H](Cc2c[nH]c3ccccc23)NC(=O)[C@H](CCC(N)=O)NC(=O)[C@H](CC(N)=O)NC(=O)[C@H](CCCCN)NC(=O)[C@H](Cc2ccccc2)NC1=O [Isolate 304A-14-A12, DWVCNLFKNQWFCDTL]		increase in affinity compared to the Isolate G08 peptide (H6NA3; from KD of Table 7 versus Table 3): several fold increase in affinity
at least as good as G08 and A07	DWICNLFKNQWFCGPL (CEA binding polypeptide) [Isolate 304A-15-E04]		

Compound	phage ELISA binding profile to varying amounts of NA3 (NA3)	binding to CEA (in words) (CEA)	further results
NWVCNLFKNQWFCNSY (cysteine pairing not given here) [Isolate G08]	drops off very quickly as the amount of NA3 drops below 50 ng per well		
DWVCENKKDQWTCNLL (cysteine pairing not given here) [Isolate A07]	drops off very quickly as the amount of NA3 drops below 50 ng per well		
